This experiment has as its system D54 ERlucT glycosylation luciferase reporter, luminescence, 24 h. Put plainly: N-linked glycosylation inhibitors, luciferase reporter, dose response, D54 ERlucT cells, luminescence, cherry-picks (AID 624491).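 Also: signal gain reflects blocked N-linked glycosylation of a luciferase reporter; actives raise luciferase signal so AC26 marks activators of the reporter.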 Background: A reporter such as luciferase makes a cellular process visible.

In PubChem BioAssay AID624491 (Broad Institute, 2012) one finds AC26 data, which are given here for 96 molecules.

SMILES strings stand for the structures. Calls of active or inactive are those of the source.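 The calls were made as follows: active = fitted curve crossing a set activation limit at or below the highest valid dose tested; inconclusive = flat fit at 30 to 70% activation, or poor fit; inactive = the rest, including signal decreases.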

For `CCN1CCN(c2ccc([N+](=O)[O-])cc2C(=O)c2ccc(Cl)cc2)CC1`, the AC26 is 11.2 µM.

Regarding `Oc1ccc(CCNc2c3ccccc3nc3ccccc23)cc1O`, the AC26 was 0.638 µM.

`Cc1ccc(-c2nc(N(C)C3CCN(C)CC3)c3ccccc3n2)cc1`: the AC26 was 4 µM.

On to `COc1ccc(/C(C)=N/NC(=O)c2ccccc2OCc2ccccc2)c(OC)c1`, for which the AC26 was 0.121 µM.

For the molecule `Cc1ccc(-c2nn3c(C)nnc3c3ccccc23)cc1S(=O)(=O)N(C)CCO`, the AC26 is 4.21 µM.

`CCOc1ccc(Nc2nc(N(C)c3ccccc3)nc(N)c2[N+](=O)[O-])cc1`: the AC26 is 0.0921 µM.

As to `COc1cccc(OCC(O)CN2CCN(CCN3C(=O)c4cccc5cccc(c45)C3=O)CC2)c1` (stereo unspecified), the AC26 was 4.25 µM.

Turning to `C#CC[N+](C)(C)CCCCCCCCC`, the AC26 is 6.07 µM.

With `CCOc1ccc2c(c1)OC(c1ccc(OC)cc1)(C(F)(F)F)NC2=O` (stereo unspecified), the AC26 was 1.61 µM.

On to `COc1ccc(C(=O)c2ccc(OC)c(N)c2)cc1N`, for which the AC26 was 0.143 µM.

On to `COc1ccc(C2=NOC(C(=O)NCc3cccs3)C2)cc1` (stereo unspecified), for which the AC26 is 1.01 µM.

For the molecule `Cc1cc(Br)cc2c(C(=O)Nc3c(C)n(C)n(-c4ccccc4)c3=O)cc(-c3cccs3)nc12`, the AC26 was 3.65 µM.

In the case of `Cc1ccc(CNC(=O)Cc2ccc(Br)cc2)cc1`, the AC26 is 6.69 µM.

For the molecule `CC(C)CN(C(=O)COC(=O)CCSc1ccc(Cl)cc1)c1c(N)n(Cc2ccccc2)c(=O)[nH]c1=O`, the AC26 was 4.45 µM.

As for `Cc1ccc(Cl)cc1N1CCN(S(=O)(=O)c2ccc(-c3ccc(=O)[nH]n3)o2)CC1`, the AC26 was 5.21 µM.

For `CNC(=O)c1cccn(Cc2ccc(C(F)(F)F)cc2)c1=O`, the AC26 was 3.37 µM.

As for `NC1(C(=O)O)CSSC1`, the AC26 is 0.221 µM.

For `COc1ccc(Cl)cc1NC(=O)Nc1ccc(C(=O)N2CCCC2)cc1`, the AC26 was 4.03 µM.

On to `c1ccc2c(c1)nc(N1CCOCC1)c1c3ccccc3[nH]c21`, for which the AC26 is 7.17 µM.

For the molecule `C=C(C)Cn1c2ccc(NC(=O)CCc3cccc(Cl)c3)cc2c(=O)n1C`, the AC26 was 7.49 µM.

In the case of `O=C(N/N=C\c1ccc(CNS(=O)(=O)c2ccc(Cl)cc2)o1)C(=O)Nc1ccc(Oc2ccccc2)cc1`, the AC26 is 4.89 µM.

For the molecule `COc1ccc(C2=Nn3c(nnc3-c3ccccc3F)SC2)cc1OC1CCOC1` (stereo unspecified), the AC26 was 4.73 µM.

As for `CC1=Nc2cc(C(=O)NCC3CCCO3)ccc2Sc2ccc(C)cc21` (stereo unspecified), the AC26 is 0.662 µM.

Take `COc1ccc2c(-c3cc4ccc(OCc5ccc(F)cc5)cc4oc3=O)cc(=O)oc2c1`: the AC26 is 4.41 µM.

As to `CCCn1c(CN2CCN(C(=O)OCC)CC2)nc2cc(NC(=O)CC)ccc21`, the AC26 was 9.15 µM.

`COc1ccc(-c2cnc3c(NC=O)cc(-c4ccccc4)cn23)cc1OC`: the AC26 was 0.0971 µM.

On to `Cc1cc(NCCN2CCOCC2)c2ccc3ccccc3c2n1`, for which the AC26 was 3.59 µM.

Turning to `CN1C(=O)CSc2ccc(NC(=O)Nc3ccccn3)cc21`, the AC26 was 4.26 µM.

As for `CC(C)OCC(O)CN1CCN(CCN2C(=O)c3cccc4cccc(c34)C2=O)CC1` (stereo unspecified), the AC26 is 7.11 µM.

Take `O=C(N/N=C/c1ccco1)c1cc(-c2ccncc2)nc2ccccc12`: the AC26 was 0.285 µM.

Regarding `O=C(NCCc1ccccc1)c1coc(=O)c(Br)c1`, the AC26 was 1.53 µM.

For the molecule `COc1ccc(C(=O)c2cc(OC)c(OC)c(OC)c2)cc1OC`, the AC26 was 1.25 µM.

As for `CCc1ccc2nc3nc(C)cc(C)c3c(N)c2c1`, the AC26 is 2.81 µM.

Consider `COc1ccc2[nH]c3c(N4CCC(O)(c5cccc(C(F)(F)F)c5)CC4)ncnc3c2c1`, for which the AC26 was 2.74 µM.

Consider `Cc1cc(=O)[nH]c(N/N=C/c2cc(C)n(CC(F)(F)F)c2C)n1`, for which the AC26 was 0.0476 µM.

As for `Cc1cc(Nc2cc(Cl)cc(Cl)c2)nc(N)n1`, the AC26 was 1.28 µM.

As for `Cc1nc(N=C(N)N)nc2c(C)cccc12`, the AC26 is 2.2 µM.

As to `C=CCn1c(SCC(=O)c2[nH]c(C)c(C(=O)OC)c2C)nc2scc(-c3ccc(OC)c(OC)c3)c2c1=O`, the AC26 was 0.703 µM.

On to `Cn1c(=O)[nH]c(=O)c2c1nc(N1CCN(Cc3ccccc3)CC1)n2CCCc1ccccc1`, for which the AC26 was 0.436 µM.

For `COc1ccc(/C=C2\SC(=O)N(CCNC(=O)C3=COCCO3)C2=O)cc1`, the AC26 was 0.658 µM.

For the molecule `COc1ccc(S(=O)Cc2ccc(C(=O)N3CCN(c4cccc(C)c4C)CC3)o2)cc1` (stereo unspecified), the AC26 is 1.43 µM.

`CCOC(=O)c1[nH]c(C)c(C(=O)N2CCc3ccccc32)c1C`: the AC26 was 0.133 µM.

For `Cc1ccc(C(=O)NCc2nnc(SCC(=O)NC(C)c3ccccc3)n2C)cc1` (stereo unspecified), the AC26 was 3.98 µM.

With `CCN(CC)S(=O)(=O)c1cccc(C(=O)OCC(=O)Nc2ccc3c(c2)c2ccccc2n3CC)c1`, the AC26 is 4.11 µM.

`CCc1ccc2[nH]c3nc(SCC(=O)NNC(=O)c4ccc(C(C)(C)C)cc4)nnc3c2c1`: the AC26 is 4.11 µM.

In the case of `COc1ccc(OC)c(S(=O)(=O)Nc2ccc(-c3ccc4nnc(C)n4n3)cc2)c1`, the AC26 is 3.19 µM.

For the molecule `COc1cc(C(=O)NCC(=O)NCCN2C(=O)S/C(=C\c3ccccc3Cl)C2=O)cc(OC)c1OC`, the AC26 was 2.43 µM.

`O=C(Nc1ccccc1O)c1ccc(NS(=O)(=O)c2cccc3cccnc23)cc1`: the AC26 is 3.93 µM.

Consider `COc1ccc(CCn2c(=N)c(C(=O)NCC3CCCO3)cc3c(=O)n4cccc(C)c4nc32)cc1` (stereo unspecified), for which the AC26 was 0.575 µM.

Take `CSc1nnc(-c2sccc2OCc2ccccc2)n1C`: the AC26 was 1.95 µM.

`c1ccc(-c2n[nH]c(-c3ccccc3)c2-c2nc3ccccc3[nH]2)cc1`: the AC26 was 4.36 µM.

As to `O=C(CN1C(=O)/C(=C\c2ccc(F)cc2)Oc2ccccc21)N1CCN(c2ccccn2)CC1`, the AC26 is 4.74 µM.

As to `CN(C)S(=O)(=O)c1ccc(N2CCCC2)c(C(=O)Nc2ccccc2)c1`, the AC26 is 0.957 µM.

As for `Cc1cc(C)nc(SC2CC(=O)N(c3ccc(C)c(C)c3)C2=O)n1` (stereo unspecified), the AC26 was 14.3 µM.

In the case of `Cn1c(=O)c2cc(NC(=O)CCc3ccccc3)ccc2n1-c1ccccc1F`, the AC26 was 1.78 µM.

Take `Nc1c(C(=O)Nc2ccc(S(=O)(=O)N3CCCC3)cc2)sc2nc3ccc(OC(F)(F)F)cc3cc12`: the AC26 is 1.16 µM.

`O=C(NCC1CCCO1)c1cc(-c2ccccc2)on1` (stereo unspecified): the AC26 was 6.45 µM.

In the case of `CCOC(=O)c1c(C)nc2sc3c(=O)n(-c4ccc(C)cc4)cnc3c2c1-c1ccc(OC)cc1`, the AC26 is 0.116 µM.

For `COc1cccc(Sc2ccccc2/C=N/NC(N)=O)c1`, the AC26 is 8.34 µM.

Take `O=C(CNc1cccc2ccccc12)N/N=C/C(Br)=C/c1ccccc1`: the AC26 was 17.1 µM.

`COC(=O)Nc1nc2ccc(-c3n[nH]c(=O)c4ccccc34)cc2[nH]1`: the AC26 is 3.35 µM.

In the case of `O=C(/C(=C\c1ccccc1)c1nc2ccccc2[nH]1)c1ccc(Cl)cc1`, the AC26 was 1 µM.

For the molecule `Cc1[nH][nH]c(=O)c1C(c1ccc(-c2cccc(Cl)c2)o1)c1c(C)[nH][nH]c1=O`, the AC26 is less than 0.0012 µM.

Turning to `O=C1CCCC2=C1C1(CCCCC1)N=C(Nc1nc3ccccc3o1)N2`, the AC26 was 5.79 µM.

On to `Cc1cccn2c(=O)c3cc(C(=O)NC4CCCCC4)n(C)c3nc12`, for which the AC26 is 10.2 µM.

Turning to `CC(C)(C)c1ccc(OCc2ccc(C(=O)Nc3cccnc3)o2)cc1`, the AC26 is 7.56 µM.

Consider `COc1ccc(NC(=O)C2Cc3c(-c4cccc(NC(C)=O)c4)ccnc3O2)cn1` (stereo unspecified), for which the AC26 is 2.59 µM.

Consider `FC(F)(F)c1cccc(Sc2nc(-c3ccccc3)nnc2C(F)(F)F)c1`, for which the AC26 is 2.34 µM.

For `OCC1OC(n2cnc3c(SCc4ccccc4)ncnc32)C(O)C1O` (stereo unspecified), the AC26 is 1.05 µM.

Take `CCOc1ccc(C(=O)n2cc(C(=O)OC)c3ccccc32)cc1`: the AC26 is > 19.5 µM (inactive).

With `c1ccc(N=Nc2ccc3cccccc2-3)cc1`, the AC26 was 2.06 µM.

In the case of `O=C(NCCN1C(=O)S/C(=C\c2ccccc2Cl)C1=O)C1=COCCO1`, the AC26 is 7.85 µM.

As to `Cc1ccc2nc(/C(C#N)=C/c3cn[nH]c3-c3ccc(F)cc3)[nH]c2c1`, the AC26 was 1.17 µM.

Consider `CSc1ccc(/C=N/NC(=O)c2ccccc2Cl)cc1`, for which the AC26 is 3.68 µM.

On to `COc1cc(Nc2c3c(nc4ccccc24)CCC3)cc(OC)c1OC`, for which the AC26 is 0.0715 µM.

On to `CCOC(=O)c1cc2sccc2n1CC(=O)N1CCc2ccccc21`, for which the AC26 was 7.5 µM.

For the molecule `CC(=O)Nc1ccc(Nc2ccc3c4c(cc(=O)n3C)-c3ccccc3C(=O)c24)cc1`, the AC26 is 0.73 µM.

As to `COc1ccc(-c2cc(C(=O)NCC(c3ccccc3)N(C)C)c3ccccc3n2)cc1OC` (stereo unspecified), the AC26 was 1.32 µM.

Turning to `COc1ccccc1-c1csc(C(NC(C)=O)c2ccc(F)c(F)c2)n1` (stereo unspecified), the AC26 was 0.341 µM.

Turning to `Cc1cccc2c(N)c3c(nc12)N(C)CC3`, the AC26 is 7.37 µM.

Regarding `Cc1c(Cl)cccc1N=Cc1ccc([N+](=O)[O-])s1`, the AC26 is 1.87 µM.

On to `Cc1ccc(NC(=O)CSc2nnc(-c3ccco3)c(-c3ccco3)n2)cc1`, for which the AC26 is 1.24 µM.

In the case of `COc1ccc(OC(=O)N2C/C(=C/c3ccccc3)C(=O)/C(=C\c3ccccc3)C2)cc1`, the AC26 was 0.299 µM.

Turning to `CCN1C(=O)c2cccc3c(S(=O)(=O)Nc4ccccc4OC)ccc1c23`, the AC26 was 4.24 µM.

For the molecule `Cc1cccc(N2C(=O)N3[C@H](c4ccc(F)cc4)[C@@H]4C(=O)N(C5CCCCC5)C(=O)[C@@H]4[C@]3(Cc3ccccc3)C2=O)c1`, the AC26 was 0.692 µM.

For `O=C(NCC1CCCO1)c1cc(-c2ccc(F)cc2)no1` (stereo unspecified), the AC26 was 5.76 µM.

For the molecule `CCN(CC)c1ccc(NC(=O)CC2Oc3ccccc3NC2=O)c(C)c1` (stereo unspecified), the AC26 was 11.6 µM.

Turning to `C[C@@]12C(=O)Nc3cc(Cl)ccc3C(=O)N1[C@H]1c3cc(Cl)ccc3OC[C@@H]1[C@@H]2c1ccccc1`, the AC26 is 4.04 µM.

For the molecule `COc1ccc(OC)c(Nc2cc3ccccc3c(=O)[nH]2)c1`, the AC26 was 0.207 µM.

With `CN(C)CCCNc1cc(-c2ccccc2)nc2cc(-c3cccc(F)c3)nn12`, the AC26 was 5.21 µM.

With `COc1cc2ccccc2cc1C(=O)N/N=C/c1cccs1`, the AC26 is 0.232 µM.

`C=CCn1c(O)c(C(CC)=NC(C)c2ccccc2)c(=O)[nH]c1=O` (stereo unspecified): the AC26 is 3.14 µM.

In the case of `Cn1c(C(=O)NC2CCCCCC2)cc2c(=O)n(C)c3ccccc3c21`, the AC26 is 4.47 µM.

As to `CCOC(=O)/C=C/C(=O)Nc1ccc(S(=O)(=O)N(C)c2ccccc2)cc1`, the AC26 was > 5 µM (inactive).

As for `CN(Cc1ccccc1)c1nc2c(c(=O)[nH]c(=O)n2C)n1CCCc1ccccc1`, the AC26 is 2.83 µM.

Turning to `Cc1cc(Sc2ccc([N+](=O)[O-])cn2)ccc1Br`, the AC26 is 6.94 µM.
